Experimental data taken from patent US20260240809A1 (EDMOND PHARMA SRL, priority 2022, published 2026).
Values after ≈ are worked out from the molar mass of the structure shown. Read-outs that look alike come from different tables or passages of the source.

Experiments:
[1] = Solubility of the test substances; assay type: physicochemical
TrkA receptor = biological target: T1, TrkA receptor (Homo sapiens, UniProt P04629); test: Phospho-TrkA (Tyr674/675) ELISA: activation of TrkA receptor by NGF in SH-SY5Y cells; assay type: cell-based; settings: for effect on basal activity in absence of NGF: FIG. 4
T1 construct: host or cells: SH-SY5Y human neuroblastoma cells
T1 sequence (P04629 33-796): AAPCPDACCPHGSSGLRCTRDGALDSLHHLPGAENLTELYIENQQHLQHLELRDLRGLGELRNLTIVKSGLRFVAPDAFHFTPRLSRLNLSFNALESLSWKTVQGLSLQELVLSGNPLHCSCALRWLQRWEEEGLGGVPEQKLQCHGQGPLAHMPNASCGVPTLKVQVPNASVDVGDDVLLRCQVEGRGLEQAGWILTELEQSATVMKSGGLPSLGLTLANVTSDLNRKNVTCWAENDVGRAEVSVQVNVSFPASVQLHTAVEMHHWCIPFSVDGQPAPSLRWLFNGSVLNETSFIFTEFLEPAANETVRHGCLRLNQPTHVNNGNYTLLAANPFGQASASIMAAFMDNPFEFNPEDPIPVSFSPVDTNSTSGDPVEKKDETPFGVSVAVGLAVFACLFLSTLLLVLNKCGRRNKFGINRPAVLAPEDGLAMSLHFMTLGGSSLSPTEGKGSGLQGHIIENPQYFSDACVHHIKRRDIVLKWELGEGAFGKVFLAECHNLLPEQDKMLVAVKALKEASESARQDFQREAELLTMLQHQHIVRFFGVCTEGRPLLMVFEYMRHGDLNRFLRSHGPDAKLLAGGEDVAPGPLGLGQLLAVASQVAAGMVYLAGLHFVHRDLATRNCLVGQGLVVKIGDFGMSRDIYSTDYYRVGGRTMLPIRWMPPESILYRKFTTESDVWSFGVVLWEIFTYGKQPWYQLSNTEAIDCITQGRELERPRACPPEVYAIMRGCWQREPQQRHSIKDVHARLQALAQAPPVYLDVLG
Experimental: The experiment is based on a commercially available ELISA assay evaluating the amount of phosphorylated TrkA (Pandre M K. et al., 2018) and used as indicated in the producer's protocol. The cell culture conditions were described in Marchesi N. et al., 2020.
All the experiments were performed under a laminar flow hood.
The phospho-TrkA (Tyr674/675) protein levels in SH-SY5Y cells were estimated with a specific ELISA kit (Cell Signaling, #7212C.), according to the manufacturer's instructions.
PathScan® Phospho-TrkA (Tyr674/675) Sandwich ELISA Kit is a solid phase sandwich enzyme-linked immunosorbent assay that detects […] levels of Phospho-TrkA (Tyr674/675) protein. A TrkA Mouse mAb #4614 has been coated onto the microwells. After incubation with cell lysates, both phospho- and nonphospho-TrkA proteins are captured by the coated antibody. Following extensive washing to remove any unbound antibody/reagent, Phospho-TrkA (Tyr674/675) Antibody #4610 is added to detect phospho-TrkA protein. Anti-rabbit IgG, HRP-linked Antibody #7074 is then used to recognize the bound detection antibody. HRP substrate, TMB (3,3′,5,5′-tetramethylbenzidine), is added to develop color. The magnitude of optical density is proportional to the quantity of Phospho-TrkA (Tyr674/675) protein.
The color development was stopped and the intensity of the color measured at 450 nm using a Synergy HT microplate reader (BioTek Instruments). The antibodies used in the kit were custom formulations specific for the kit.

SH-SY5Y cells = assay type: cell-based; settings: human
Experimental: Accordingly, two time points were explored: short (90 min) and long (24 hrs). In general, longer times of exposure may sometime influence the chosen response to the test conditions/substances; it is therefore important in the starting exploratory protocols to explore an adequate time interval.
The cellular toxicity was evaluated by measuring the mitochondrial activity through the MTT assay (Marchesi N. et al., 2020).
Mitochondrial enzymatic activity was estimated by MTT [3-(4,5-dimethylthiazol-2-yl)-2,5-diphenyltetrazolium bromide] assay (Sigma-Aldrich). A cell suspension of 2×10^4 cells/mL SH-SY5Y cell line was seeded into 96-well plates.
Following each treatment of 90 minutes and 24 hours, 50 μL of MTT (concentration equal to 2.5 mg/mL) were added to each well. After incubation at 37° C. for 3 hours, the purple formazan crystals were formed. The formed crystals were solubilized in dimethylsulfoxide (DMSO; Sigma-Aldrich). Specifically, after removing the MTT from the wells, 100 μL of DMSO were added in order to lyse the cellular and mitochondrial membranes, and solubilize the formazan crystals. After 10 minutes, absorbance values were measured at 595 nm using a Synergy HT microplate reader (BioTek Instruments) and the results expressed as % with respect to control. […]

[2] = 10 mM, 90 min, FIG. 4, Tukey's test
[3] = SH-SY5Y, read-out: inhibition of NGF (reduction of the response to NGF)
[4] = SH-SY5Y, read-out: inhibition of TrkA activation by NGF
[5] = 10 mM, 24 hrs, FIG. 8, Dunnett's test
[6] = 24 hrs exposure, no NGF, FIG. 8
[7] = 1 mM, 24 hrs, FIG. 9, Dunnett's test
[8] = 10 mM, 24 hrs, FIG. 9, Dunnett's test
[9] = SH-SY5Y, read-out: inhibition of TrkA activation by NGF, 10 mM, 24 hrs exposure, FIG. 8

SMILES: O=C(O)CSCC(=O)NC(CCS)C(=O)O (stereo not shown) [Met-1]
- solubility ([1]; water): 164 mg/mL (≈ 613 mM)
- Statistically significant (NGF vs. substance + NGF) (TrkA receptor; [2]): Yes
- Statistically significant (NGF vs. substance + NGF) (TrkA receptor; 20 mM, 90 min, FIG. 3, Tukey's test): Yes
- Statistically significant (NGF vs. substance + NGF) (TrkA receptor; 20 mM, 90 min, FIG. 4, Tukey's test): Yes
- Statistically significant (NGF vs. substance + NGF) (TrkA receptor; 40 mM, 90 min, FIG. 3, Tukey's test): Yes
- effect on basal pTrkA levels (substance alone) (TrkA receptor; 20 and 40 mM, 90 min, no NGF, FIG. 3): did not alter
- effect on basal activity in absence of NGF (TrkA receptor; 90 min, no NGF): do not modify
- inhibition at 10000 µM (TrkA receptor; [3]): 23%
- inhibition at 20000 µM (TrkA receptor; [3]): 24.5%
- inhibition at 20000 µM (TrkA receptor; [4]): 34%
- inhibition at 40000 µM (TrkA receptor; [4]): 52%
- decrease of mitochondrial activity (SH-SY5Y cells; 24 h, 10 mM): 17.5%

SMILES: O=C(O)CSCC(=O)N[C@@H]1CCSC1=O [Erdo R]
- inhibition of TrkA activation by NGF (TrkA receptor; 10 mM, 24 hrs exposure, FIG. 8): 30%
- Statistically significant (NGF vs. substance + NGF) (TrkA receptor; [5]): Yes
- effect on the basal activity (TrkA receptor; [6]): no effect

SMILES: O=C(O)CSCC(=O)NC1CCSC1=O (racemic) [erdosteine, (2-[N-3-(2-oxotetrahydrothienyl)]acetamido)-thioglycolic acid, reference compound]
- solubility at 20 min ([1]; 37 °C, aqueous buffer, MEM, warming 20 minutes at 37°): 11 mg/mL (≈ 44.1 mM)
- Statistically significant (NGF vs. substance + NGF) (TrkA receptor; 0.1 mM, 24 h, FIG. 7, Tukey's test): No
- inhibitory action on TrkA activation by NGF (TrkA receptor; 0.1 mM, 24 hrs exposure, FIG. 7): ineffective
- Statistically significant (NGF vs. substance + NGF) (TrkA receptor; 0.5 mM, 24 h, FIG. 7, Tukey's test): Yes
- inhibitory action on TrkA activation by NGF (TrkA receptor; 0.5 mM, 24 hrs exposure, FIG. 7): a trend which is appreciable but not strongly statistically significant
- inhibition of TrkA activation by NGF at plateau (TrkA receptor; 1 mM and higher (up to 10 mM), 24 hrs exposure, FIG. 7): around 40%
- Statistically significant (NGF vs. substance + NGF) (TrkA receptor; 1 mM, 24 h, FIG. 7, Tukey's test): Yes
- inhibitory action on TrkA activation by NGF (TrkA receptor; 1.0 mM, 24 hrs exposure, FIG. 7): significant inhibitory action
- Statistically significant (NGF vs. substance + NGF) (TrkA receptor; [7]): No
- Statistically significant (NGF vs. substance + NGF) (TrkA receptor; 5 mM, 24 h, FIG. 7, Tukey's test): Yes
- Statistically significant (NGF vs. substance + NGF) (TrkA receptor; 10 mM, 90', FIG. 6, Tukey's test): Yes
- Statistically significant (NGF vs. substance + NGF) (TrkA receptor; [2]): No
- Statistically significant (NGF vs. substance + NGF) (TrkA receptor; 10 mM, 24 h, FIG. 6, Tukey's test): Yes
- Statistically significant (NGF vs. substance + NGF) (TrkA receptor; 10 mM, 24 h, FIG. 7, Tukey's test): Yes
- Statistically significant (NGF vs. substance + NGF) (TrkA receptor; [5]): Yes
- Statistically significant (NGF vs. substance + NGF) (TrkA receptor; [8]): Yes
- effect on basal activity in absence of NGF (TrkA receptor; 90 min, no NGF): do not modify
- IC50 (TrkA receptor; 24 hrs exposure, FIG. 9): 500 to 1000 µM
- inhibition at 10000 µM (TrkA receptor; SH-SY5Y, 10 mM, 24 hours exposure, FIG. 6, read-out: inhibition of TrkA phosphorylation): 42.2%
- inhibition at 10000 µM (TrkA receptor; SH-SY5Y, read-out: inhibition of NGF (reduction of the response to NGF), 10 mM, 90 min pre-exposure, NGF 100 ng/ml, FIG. 4): 8.2%
- inhibition at 10000 µM (TrkA receptor; SH-SY5Y, read-out: inhibition of TrkA activation by NGF, 10 mM, 90 min exposure, FIG. 6): 13.9%
- inhibition at 10000 µM (TrkA receptor; [9]): 36%
- decrease in mitochondrial activity (SH-SY5Y cells; 90 min, 20 mM): 16.3%

SMILES: O=C(O)CSCC(=O)N[C@H]1CCSC1=O [Erdo S]
- Statistically significant (NGF vs. substance + NGF) (TrkA receptor; 1 nM, 24 hrs, FIG. 9, Dunnett's test): No
- Statistically significant (NGF vs. substance + NGF) (TrkA receptor; 100 nM, 24 hrs, FIG. 9, Dunnett's test): Yes
- effect on TrkA activation by NGF (TrkA receptor; 100 nM, 24 hrs, no change up to 10 mM, FIG. 9): already maximal
- Statistically significant (NGF vs. substance + NGF) (TrkA receptor; 1 uM, 24 hrs, FIG. 9, Dunnett's test): Yes
- Statistically significant (NGF vs. substance + NGF) (TrkA receptor; 0.01 mM, 24 hrs, FIG. 9, Dunnett's test): Yes
- Statistically significant (NGF vs. substance + NGF) (TrkA receptor; 0.05 mM, 24 hrs, FIG. 9, Dunnett's test): Yes
- Statistically significant (NGF vs. substance + NGF) (TrkA receptor; 0.1 mM, 24 hrs, FIG. 9, Dunnett's test): Yes
- Statistically significant (NGF vs. substance + NGF) (TrkA receptor; [7]): No
- Statistically significant (NGF vs. substance + NGF) (TrkA receptor; 5 mM, 24 hrs, FIG. 9, Dunnett's test): Yes
- Statistically significant (NGF vs. substance + NGF) (TrkA receptor; [5]): Yes
- Statistically significant (NGF vs. substance + NGF) (TrkA receptor; [8]): Yes
- IC50 (TrkA receptor; 24 hrs exposure, FIG. 9): 0.001 to 0.1 µM
- effect on the basal activity (TrkA receptor; [6]): no effect
- inhibition at 10000 µM (TrkA receptor; [9]): 41%
